Reference: US7074789B2, “Kinase inhibitors” (Amgen Inc., priority 1999, dated 2006)

Legend:
Assay type in all cases: biochemical
Lck = biological target: T1, Lck (Homo sapiens, UniProt P06239); test: Kinase inhibition assay (33P transfer), Lck; conditions: Table 3; read-out: Lck-1
T1 construct: Kinases are expressed as either kinase domains or full length constructs; made in house
How it was run: (§1)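 Kinase domains or full-length kinases, GST- or His-tagged and expressed in E. coli or baculovirus/High Five cells, transferred 33PO4 from ATP onto plate-bound poly(Glu,Tyr) 4:1 or poly(Arg,Ser) 3:1. After incubation, plates were washed with 0.5% phosphoric acid and counted by liquid scintillation.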

Lyn = biological target: T2, Lyn (Homo sapiens, UniProt P07948); test: Kinase inhibition assay (33P transfer), Lyn; conditions: Table 6, Lyn-1 kinase inhibition class
T2 construct: Kinases are expressed as either kinase domains or full length constructs; made in house
T2 sequence (P07948 whole entry, species assumed, the tested form may be a part): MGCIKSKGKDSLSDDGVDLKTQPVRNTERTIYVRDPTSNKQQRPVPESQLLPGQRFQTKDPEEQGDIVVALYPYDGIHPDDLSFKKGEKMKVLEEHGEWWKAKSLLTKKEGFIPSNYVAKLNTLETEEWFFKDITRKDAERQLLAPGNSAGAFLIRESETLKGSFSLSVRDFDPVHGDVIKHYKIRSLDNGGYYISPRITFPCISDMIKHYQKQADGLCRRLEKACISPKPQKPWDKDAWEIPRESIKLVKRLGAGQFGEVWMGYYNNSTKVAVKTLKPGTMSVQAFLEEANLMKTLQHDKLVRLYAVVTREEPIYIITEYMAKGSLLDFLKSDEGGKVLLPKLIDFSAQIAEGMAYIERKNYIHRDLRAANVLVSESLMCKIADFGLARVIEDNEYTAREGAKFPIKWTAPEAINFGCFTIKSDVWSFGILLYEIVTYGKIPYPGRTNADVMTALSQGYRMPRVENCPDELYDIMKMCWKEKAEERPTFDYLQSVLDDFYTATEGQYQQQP
Source text: (§2) The inhibitor compounds described herein are screened in the following manner. Kinases suitable for use in the following protocol to determine kinase activity of the compounds described herein include, -but are not limited to: Lck, Lyn, Src, Fyn, Syk, Zap-70, Itk, Tec, Btk, EGFR, ErbB2, Kdr, Flt-1, Flt-3, Tek, c-Met, InsR, and AKT.
(§3) Kinases are expressed as either kinase domains or full length constructs fused to glutathione S-transferase (GST) or polyHistidine tagged fusion proteins in either E. colior Baculovirus-High Five expression systems. They are purified to near homogeneity by affinity chromatography essentially as previously described (Lehr et al., 1996; Gish et al., 1995). In some instances, kinases are co-expressed or mixed with purified or partially purified regulatory polypeptides prior to measurement of activity.
(§4) Kinase activity and inhibition are measured essentially by established protocols (Braunwalder et al., 1996). Briefly, The transfer of ^33PO4 from ATP to the synthetic substrates poly(Glu, Tyr) 4:1 or poly(Arg, Ser) 3:1 attached to the bioactive surface of microtiter plates serves as the basis to evaluate enzyme activity. After an incubation period, the amount of phosphate transferred is measured by first washing the plate with 0.5% phosphoric acid, adding liquid scintillant, and then counting in a liquid scintillation detector. The IC50 is determined by the concentration of compound that causes a 50% reduction in the amount of […] incorporated onto the substrate bound to the plate.

Src = biological target: T3, Src (Homo sapiens, UniProt P12931); test: Kinase inhibition assay (33P transfer), Src; conditions: Table 6, Src-1 kinase inhibition class
T3 construct: Kinases are expressed as either kinase domains or full length constructs; made in house
T3 sequence (P12931 whole entry, species assumed, the tested form may be a part): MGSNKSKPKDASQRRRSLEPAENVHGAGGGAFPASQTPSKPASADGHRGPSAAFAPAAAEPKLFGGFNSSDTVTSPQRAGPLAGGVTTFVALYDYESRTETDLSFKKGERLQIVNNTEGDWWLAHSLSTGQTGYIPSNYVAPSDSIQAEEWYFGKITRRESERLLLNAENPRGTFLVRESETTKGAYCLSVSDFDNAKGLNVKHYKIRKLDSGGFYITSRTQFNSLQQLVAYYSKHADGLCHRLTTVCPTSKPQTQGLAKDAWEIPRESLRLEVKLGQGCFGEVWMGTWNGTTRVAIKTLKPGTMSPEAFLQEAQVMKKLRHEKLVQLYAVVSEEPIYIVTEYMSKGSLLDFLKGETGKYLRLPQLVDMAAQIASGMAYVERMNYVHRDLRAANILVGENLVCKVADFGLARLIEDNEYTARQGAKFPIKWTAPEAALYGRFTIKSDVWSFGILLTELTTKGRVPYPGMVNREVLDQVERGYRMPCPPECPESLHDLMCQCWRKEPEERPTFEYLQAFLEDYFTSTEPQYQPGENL
Source text: as §2, §3, §4

Fyn = biological target: T4, Fyn (Homo sapiens, UniProt P06241); test: Kinase inhibition assay (33P transfer), Fyn; conditions: read-out: Fyn-1
T4 construct: Kinases are expressed as either kinase domains or full length constructs; made in house
T4 sequence (P06241 whole entry, species assumed, the tested form may be a part): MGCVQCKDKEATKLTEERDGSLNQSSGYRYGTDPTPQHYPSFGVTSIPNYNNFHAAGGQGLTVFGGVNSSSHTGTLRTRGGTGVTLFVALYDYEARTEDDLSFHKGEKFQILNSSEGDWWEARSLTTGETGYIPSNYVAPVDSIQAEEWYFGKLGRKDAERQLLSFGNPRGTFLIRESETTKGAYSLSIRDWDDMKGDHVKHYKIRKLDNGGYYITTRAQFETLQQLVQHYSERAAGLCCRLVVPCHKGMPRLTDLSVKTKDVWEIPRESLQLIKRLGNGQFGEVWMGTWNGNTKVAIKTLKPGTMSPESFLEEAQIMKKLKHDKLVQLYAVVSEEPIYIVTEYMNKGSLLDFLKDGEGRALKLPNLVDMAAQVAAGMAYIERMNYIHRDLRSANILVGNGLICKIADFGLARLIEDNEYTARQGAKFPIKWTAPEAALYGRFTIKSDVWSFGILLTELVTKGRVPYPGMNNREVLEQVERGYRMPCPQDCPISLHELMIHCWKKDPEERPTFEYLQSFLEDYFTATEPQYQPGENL
Source text: as §2, §3, §4

Zap-70 = biological target: T5, Zap-70 (Homo sapiens, UniProt P43403); test: Kinase inhibition assay (33P transfer), Zap-70; conditions: Table 3; read-out: Zap-1
T5 construct: Kinases are expressed as either kinase domains or full length constructs; made in house
T5 sequence (P43403 1-619): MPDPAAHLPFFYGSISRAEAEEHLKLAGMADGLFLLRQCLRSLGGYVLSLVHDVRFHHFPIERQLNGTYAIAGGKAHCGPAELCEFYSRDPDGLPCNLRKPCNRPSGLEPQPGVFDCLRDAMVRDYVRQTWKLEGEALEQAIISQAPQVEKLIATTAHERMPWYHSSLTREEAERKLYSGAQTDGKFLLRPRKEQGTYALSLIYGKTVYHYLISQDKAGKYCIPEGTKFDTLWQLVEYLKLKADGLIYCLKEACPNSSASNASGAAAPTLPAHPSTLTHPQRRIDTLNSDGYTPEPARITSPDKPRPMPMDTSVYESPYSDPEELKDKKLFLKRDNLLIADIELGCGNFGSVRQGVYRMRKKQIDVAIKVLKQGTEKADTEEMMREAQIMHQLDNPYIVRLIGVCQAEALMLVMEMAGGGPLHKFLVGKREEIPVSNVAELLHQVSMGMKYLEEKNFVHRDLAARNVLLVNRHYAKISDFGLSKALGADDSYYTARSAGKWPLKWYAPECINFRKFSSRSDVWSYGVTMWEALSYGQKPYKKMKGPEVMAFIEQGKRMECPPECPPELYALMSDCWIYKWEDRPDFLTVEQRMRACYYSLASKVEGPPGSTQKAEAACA
How it was run: as §1

Itk = biological target: T6, Itk (Homo sapiens, UniProt Q08881); test: Kinase inhibition assay (33P transfer), Itk; conditions: Table 3; read-out: Itk-1
T6 construct: Kinases are expressed as either kinase domains or full length constructs; made in house
T6 sequence (Q08881 1-620): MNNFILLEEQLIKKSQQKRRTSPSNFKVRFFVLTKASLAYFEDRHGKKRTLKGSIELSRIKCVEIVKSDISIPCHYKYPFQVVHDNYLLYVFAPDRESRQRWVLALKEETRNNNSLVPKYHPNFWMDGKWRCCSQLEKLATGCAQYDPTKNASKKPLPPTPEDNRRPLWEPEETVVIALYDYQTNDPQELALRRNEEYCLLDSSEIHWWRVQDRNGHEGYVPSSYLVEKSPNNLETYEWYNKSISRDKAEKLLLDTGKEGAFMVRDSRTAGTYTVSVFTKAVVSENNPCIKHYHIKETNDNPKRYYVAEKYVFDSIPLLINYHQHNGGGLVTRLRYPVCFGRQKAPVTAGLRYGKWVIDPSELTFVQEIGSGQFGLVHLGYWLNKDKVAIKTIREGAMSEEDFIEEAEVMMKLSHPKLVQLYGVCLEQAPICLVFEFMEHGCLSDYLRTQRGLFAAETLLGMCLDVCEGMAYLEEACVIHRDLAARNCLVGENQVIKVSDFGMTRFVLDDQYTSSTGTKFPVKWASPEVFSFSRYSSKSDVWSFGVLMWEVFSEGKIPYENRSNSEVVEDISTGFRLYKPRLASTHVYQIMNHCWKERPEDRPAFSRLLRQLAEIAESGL
How it was run: (§5)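 Using immobilised substrate copolymers (poly(Glu,Tyr) 4:1; poly(Arg,Ser) 3:1) and [33P]ATP, purified fusion kinases were allowed to react; plates were then rinsed in 0.5% phosphoric acid and counted in a scintillation detector. Half-maximal inhibition of label transfer defines IC50.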

EGFR = biological target: T7, EGFR (Homo sapiens, UniProt P00533); test: Kinase inhibition assay (33P transfer), EGFR; conditions: Table 2, kinase inhibition class; read-out: EGFR-1
T7 construct: Kinases are expressed as either kinase domains or full length constructs; made in house
How it was run: as §5

Kdr = biological target: T8, Kdr (Homo sapiens, UniProt P35968); test: Kinase inhibition assay (33P transfer), Kdr; conditions: Table 3; read-out: KDR-1
T8 construct: Kinases are expressed as either kinase domains or full length constructs; made in house
How it was run: as §1

Flt-1 = biological target: T9, Flt-1 (Homo sapiens, UniProt P17948); test: Kinase inhibition assay (33P transfer), Flt-1
T9 construct: Kinases are expressed as either kinase domains or full length constructs; made in house
Source text: as §2, §3, §4

Tek = biological target: T10, Tek (Homo sapiens, UniProt Q02763); test: Kinase inhibition assay (33P transfer), Tek; conditions: read-out: Tek-1
T10 construct: Kinases are expressed as either kinase domains or full length constructs; made in house
How it was run: as §5

c-Met = biological target: T11, c-Met (Homo sapiens, UniProt P08581); test: Kinase inhibition assay (33P transfer), c-Met; conditions: Table 2, kinase inhibition class; read-out: Met-1
T11 construct: Kinases are expressed as either kinase domains or full length constructs; made in house
T11 sequence (P08581 25-1390): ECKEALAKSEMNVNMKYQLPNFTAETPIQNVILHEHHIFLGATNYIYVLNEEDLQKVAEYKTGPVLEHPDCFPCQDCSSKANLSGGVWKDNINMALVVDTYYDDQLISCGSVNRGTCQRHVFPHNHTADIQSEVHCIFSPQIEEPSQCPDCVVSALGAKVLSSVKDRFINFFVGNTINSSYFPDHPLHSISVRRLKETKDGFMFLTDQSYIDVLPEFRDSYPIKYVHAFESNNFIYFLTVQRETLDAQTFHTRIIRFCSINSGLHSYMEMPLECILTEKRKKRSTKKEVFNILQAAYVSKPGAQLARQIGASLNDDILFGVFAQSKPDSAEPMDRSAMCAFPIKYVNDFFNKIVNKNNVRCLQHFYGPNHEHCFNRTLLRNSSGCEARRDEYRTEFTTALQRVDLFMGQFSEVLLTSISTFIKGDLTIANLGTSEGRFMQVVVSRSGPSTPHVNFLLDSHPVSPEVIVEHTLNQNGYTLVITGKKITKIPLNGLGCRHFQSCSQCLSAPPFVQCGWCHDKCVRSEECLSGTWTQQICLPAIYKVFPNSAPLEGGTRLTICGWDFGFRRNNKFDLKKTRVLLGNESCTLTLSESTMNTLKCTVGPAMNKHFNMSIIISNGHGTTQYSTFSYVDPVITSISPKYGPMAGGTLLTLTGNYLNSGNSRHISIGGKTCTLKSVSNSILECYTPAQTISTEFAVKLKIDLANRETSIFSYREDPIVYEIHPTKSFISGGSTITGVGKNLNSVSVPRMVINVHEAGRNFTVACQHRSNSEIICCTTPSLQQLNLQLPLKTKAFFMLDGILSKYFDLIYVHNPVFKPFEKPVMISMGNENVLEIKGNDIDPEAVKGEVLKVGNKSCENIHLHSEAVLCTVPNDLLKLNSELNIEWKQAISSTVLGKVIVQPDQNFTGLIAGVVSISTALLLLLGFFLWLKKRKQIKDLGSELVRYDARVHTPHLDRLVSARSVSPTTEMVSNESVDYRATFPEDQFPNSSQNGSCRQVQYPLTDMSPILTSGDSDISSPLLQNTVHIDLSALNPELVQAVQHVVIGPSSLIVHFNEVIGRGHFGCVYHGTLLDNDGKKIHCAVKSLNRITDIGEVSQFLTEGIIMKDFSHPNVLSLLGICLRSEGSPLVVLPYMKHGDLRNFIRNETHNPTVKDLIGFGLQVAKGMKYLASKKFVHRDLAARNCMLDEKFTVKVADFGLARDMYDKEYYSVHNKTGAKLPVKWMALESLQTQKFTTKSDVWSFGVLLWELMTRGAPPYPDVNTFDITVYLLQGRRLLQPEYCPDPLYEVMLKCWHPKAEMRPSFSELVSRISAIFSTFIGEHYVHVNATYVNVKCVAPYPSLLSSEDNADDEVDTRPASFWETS
How it was run: as §5

AKT = biological target: T12, AKT (Homo sapiens, UniProt Q9Y243); test: Kinase inhibition assay (33P transfer), AKT; conditions: Table 2, kinase inhibition class; read-out: AKT3-1
T12 construct: Kinases are expressed as either kinase domains or full length constructs; made in house
T12 sequence (Q9Y243 whole entry, the tested form may be a part): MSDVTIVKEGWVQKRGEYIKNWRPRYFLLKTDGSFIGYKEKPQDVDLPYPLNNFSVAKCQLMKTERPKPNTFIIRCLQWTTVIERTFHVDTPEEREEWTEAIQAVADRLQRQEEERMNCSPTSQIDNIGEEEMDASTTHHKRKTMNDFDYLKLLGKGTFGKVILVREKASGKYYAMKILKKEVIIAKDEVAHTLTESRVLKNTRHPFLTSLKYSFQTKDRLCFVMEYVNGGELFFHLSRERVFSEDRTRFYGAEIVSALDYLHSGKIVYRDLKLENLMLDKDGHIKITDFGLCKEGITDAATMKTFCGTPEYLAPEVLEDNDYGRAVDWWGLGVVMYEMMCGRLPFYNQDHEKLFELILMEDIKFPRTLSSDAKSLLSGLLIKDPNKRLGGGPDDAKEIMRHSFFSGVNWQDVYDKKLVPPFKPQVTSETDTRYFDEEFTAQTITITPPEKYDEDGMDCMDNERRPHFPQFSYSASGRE
How it was run: as §1

PDGFRB = biological target: T13, PDGFRB (Homo sapiens, UniProt P09619); test: Kinase inhibition assay (33P transfer), PDGFRB; conditions: read-out: PDGFRB-1
T13 construct: Kinases are expressed as either kinase domains or full length constructs; made in house

Hck-1 = biological target: T14, Hck-1 (Homo sapiens, UniProt P08631); test: Kinase inhibition assay (33P transfer), Hck; conditions: Table 6, Hck-1 kinase inhibition class
T14 construct: Kinases are expressed as either kinase domains or full length constructs; made in house

ErbB4 = biological target: T15, ErbB4 (Homo sapiens, UniProt Q15303); test: Kinase inhibition assay (33P transfer), ErbB4; conditions: read-out: ErbB4-1
T15 construct: Kinases are expressed as either kinase domains or full length constructs; made in house

FGFR1 = biological target: T16, FGFR1 (Homo sapiens, UniProt P11362); test: Kinase inhibition assay (33P transfer), FGFR1; conditions: read-out: FGFR1-1
T16 construct: Kinases are expressed as either kinase domains or full length constructs; made in house
T16 sequence (P11362 22-822, species assumed): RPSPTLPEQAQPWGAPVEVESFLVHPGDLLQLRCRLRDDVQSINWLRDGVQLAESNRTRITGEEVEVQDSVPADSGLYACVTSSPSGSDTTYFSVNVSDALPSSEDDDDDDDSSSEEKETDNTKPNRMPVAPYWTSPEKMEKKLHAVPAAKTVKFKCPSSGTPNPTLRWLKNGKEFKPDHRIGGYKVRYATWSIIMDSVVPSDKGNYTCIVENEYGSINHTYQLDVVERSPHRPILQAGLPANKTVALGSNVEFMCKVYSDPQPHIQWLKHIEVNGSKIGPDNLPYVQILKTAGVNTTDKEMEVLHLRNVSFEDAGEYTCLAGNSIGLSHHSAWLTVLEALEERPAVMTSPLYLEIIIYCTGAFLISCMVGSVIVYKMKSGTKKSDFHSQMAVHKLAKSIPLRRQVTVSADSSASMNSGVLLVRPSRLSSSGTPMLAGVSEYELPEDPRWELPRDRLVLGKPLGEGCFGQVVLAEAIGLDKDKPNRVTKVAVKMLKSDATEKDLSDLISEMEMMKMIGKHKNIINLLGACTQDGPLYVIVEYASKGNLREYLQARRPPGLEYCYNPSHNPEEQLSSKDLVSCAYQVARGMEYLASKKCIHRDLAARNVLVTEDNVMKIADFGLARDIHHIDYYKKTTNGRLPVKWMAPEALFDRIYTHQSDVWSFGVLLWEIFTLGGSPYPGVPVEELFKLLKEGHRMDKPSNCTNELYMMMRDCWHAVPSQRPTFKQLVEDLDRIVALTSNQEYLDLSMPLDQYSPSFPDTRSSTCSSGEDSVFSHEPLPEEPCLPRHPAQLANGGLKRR

T1 sequence (P06239 whole entry, species assumed, the tested form may be a part): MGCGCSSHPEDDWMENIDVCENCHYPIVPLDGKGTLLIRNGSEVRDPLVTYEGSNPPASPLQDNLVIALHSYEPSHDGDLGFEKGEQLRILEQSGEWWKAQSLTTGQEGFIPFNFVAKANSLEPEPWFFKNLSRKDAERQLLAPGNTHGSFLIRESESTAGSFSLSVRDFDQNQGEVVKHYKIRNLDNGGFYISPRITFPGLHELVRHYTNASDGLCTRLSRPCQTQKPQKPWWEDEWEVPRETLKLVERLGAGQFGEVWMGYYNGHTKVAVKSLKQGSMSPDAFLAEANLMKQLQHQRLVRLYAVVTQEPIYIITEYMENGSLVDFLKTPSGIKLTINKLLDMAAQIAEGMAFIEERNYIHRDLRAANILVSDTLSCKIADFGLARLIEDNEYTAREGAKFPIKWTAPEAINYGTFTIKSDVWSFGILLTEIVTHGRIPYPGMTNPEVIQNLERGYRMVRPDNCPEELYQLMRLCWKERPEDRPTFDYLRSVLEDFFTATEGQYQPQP

SMILES	IC50 (Lck)	IC50 (Lyn)	IC50 (Src)	IC50 (Fyn)	IC50 (Zap-70)	IC50 (Itk)	IC50 (EGFR)	IC50 (Kdr)	IC50 (Flt-1)	IC50 (Tek)	IC50 (c-Met)	IC50 (AKT)	IC50 (PDGFRB)	IC50 (Hck-1)	IC50 (ErbB4)	IC50 (FGFR1)
COc1cc(Nc2ncnc(-n3ccc4cc(F)ccc43)n2)cc(OC)c1OC [Compound 441]	6.07 to 8.85 µM	> 11.4 µM	> 11.4 µM	1.01 to 6.07 µM	> 11.4 µM	> 11.4 µM	> 11.4 µM	< 1.01 µM	1.01 to 6.07 µM	> 11.4 µM	> 11.4 µM	> 11.4 µM	< 1.01 µM	> 11.4 µM	> 11.4 µM	> 11.4 µM
COc1cc(Nc2ncnc(-n3c(N)nc4ccccc43)n2)cc(OCCN2CCOCC2)c1OC [Compound 466]	< 0.812 µM	< 0.812 µM	0.812 to 4.87 µM	0.812 to 4.87 µM	> 9.14 µM	4.87 to 7.11 µM	> 9.14 µM	< 0.812 µM	< 0.812 µM	7.11 to 9.14 µM	0.812 to 4.87 µM	> 9.14 µM	< 0.812 µM	> 9.14 µM	> 9.14 µM	< 0.812 µM

The remaining lines, values ahead:

IC50 (Lck)	IC50 (Lyn)	IC50 (Src)	IC50 (Fyn)	IC50 (Zap-70)	IC50 (Itk)	IC50 (EGFR)	IC50 (Kdr)	IC50 (Flt-1)	IC50 (Tek)	IC50 (c-Met)	IC50 (AKT)	IC50 (PDGFRB)	IC50 (Hck-1)	IC50 (ErbB4)	IC50 (FGFR1)	SMILES
> 11.5 µM	1.02 to 6.15 µM	6.15 to 8.97 µM	6.15 to 8.97 µM	> 11.5 µM	1.02 to 6.15 µM	1.02 to 6.15 µM	< 1.02 µM	1.02 to 6.15 µM	> 11.5 µM	1.02 to 6.15 µM	> 11.5 µM	1.02 to 6.15 µM	> 11.5 µM	1.02 to 6.15 µM	1.02 to 6.15 µM	CC(=O)NCc1ccc(Nc2ncnc(Nc3cc(-c4ccco4)n[nH]3)n2)cc1 [Compound 443]
< 0.812 µM	0.812 to 4.87 µM	0.812 to 4.87 µM	0.812 to 4.87 µM	> 9.14 µM	0.812 to 4.87 µM	> 9.14 µM	< 0.812 µM	< 0.812 µM	7.11 to 9.14 µM	0.812 to 4.87 µM	> 9.14 µM	< 0.812 µM	> 9.14 µM	> 9.14 µM	< 0.812 µM	COc1cc(Nc2ncnc(-n3c(N)nc4ccccc43)n2)cc(OC)c1OCCN1CCOCC1 [Compound 445]
> 10.7 µM	0.949 to 5.69 µM	0.949 to 5.69 µM	< 0.949 µM	> 10.7 µM	> 10.7 µM	> 10.7 µM	< 0.949 µM	< 0.949 µM	> 10.7 µM	> 10.7 µM	> 10.7 µM	< 0.949 µM	> 10.7 µM	> 10.7 µM	< 0.949 µM	COc1cc(Nc2ncnc(-n3cc(CCO)c4ccccc43)n2)cc(OC)c1OC [Compound 463]
